Results taken from ChEMBL document CHEMBL2010747, “Synthesis of [12]aneN3-dipeptide conjugates as metal-free DNA nucleases” (Bioorg Med Chem Lett, 2012).
Calls of active or inactive are those of the source. The rule behind the calls is not given here. Peptide text beside a SMILES is read from it. * marks the point of attachment. Fmoc = O=C(OCC1c2ccccc2-c2ccccc21)*

Legend:
Format in all cases: nucleic-acid assay
Nucleic Acid [1] = experiment: Displacement of ethidium bromide from calf thymus DNA after 1 min by fluorimetry; conditions: Bos taurus
Nucleic Acid [2] = experiment: Induction of Escherichia coli pUC18 DNA cleavage assessed as formation of open circular DNA at 200 uM after 48 hrs by agarose gel electrophoresis
Nucleic Acid [3] = experiment: Induction of Escherichia coli pUC18 DNA cleavage assessed as formation of linear DNA at 50 to 500 uM after 48 hrs by agarose gel electrophoresis
Nucleic Acid [4] = experiment: Induction of Escherichia coli pUC18 DNA cleavage assessed as formation of open circular DNA at 200 uM from 6 to 48 hrs by agarose gel electrophoresis
Nucleic Acid [5] = experiment: Induction of Escherichia coli pUC18 DNA cleavage assessed as formation of open circular DNA at 200 uM after 48 hrs by agarose gel electrophoresis in presence of EDTA
Nucleic Acid [6] = experiment: Induction of Escherichia coli pUC18 DNA cleavage assessed as formation of open circular DNA at 200 uM after 48 hrs by agarose gel electrophoresis in presence of […]
Nucleic Acid [7] = experiment: Induction of Escherichia coli pUC18 DNA cleavage assessed as formation of open circular DNA at 200 uM after 48 hrs by agarose gel electrophoresis in presence of singlet oxygen radical scavenger NaN3
Nucleic Acid [8] = experiment: Induction of Escherichia coli pUC18 DNA cleavage assessed as formation of linear DNA at 200 uM after 48 hrs by agarose gel electrophoresis
Nucleic Acid [9] = experiment: Induction of Escherichia coli pUC18 DNA cleavage assessed as formation of open circular DNA at 200 uM after 48 hrs by agarose gel electrophoresis in presence of hydroxyl radical scavenger DMSO
Nucleic Acid [10] = experiment: Induction of Escherichia coli pUC18 DNA cleavage assessed as formation of open circular DNA at 200 uM after 48 hrs by agarose gel electrophoresis in presence of hydroxyl radical scavenger t-BuOH

Row | Kapp (Nucleic Acid [1]) [×10⁴ /M] | Activity (Nucleic Acid [2]) | SMILES | also measured
1 | 4.2 | 50% | COC(=O)CNC(=O)CNC(=O)CN1CCCNCCCNCCC1 | –
2 | – | inactive | COC(=O)CNC(=O)[C@@H](N)CC(C)C (H-Leu-Gly-OMe) | –
3 | – | inactive | COC(=O)CNC(=O)CN | –
4 | – | inactive | COC(=O)[C@H](Cc1ccccc1)NC(=O)[C@@H](N)CC(C)C (H-Leu-Phe-OMe) | –
5 | 4 | 50% | COC(=O)CNC(=O)[C@H](CC(C)C)NC(=O)CN1CCCNCCCNCCC1 | –
6 | 7.2 | 50% | COC(=O)[C@H](CO)NC(=O)[C@H](CC(C)C)NC(=O)CN1CCCNCCCNCCC1 | –
7 | 6.6 | 50% | COC(=O)[C@H](Cc1ccccc1)NC(=O)[C@H](CC(C)C)NC(=O)CN1CCCNCCCNCCC1 | –
8 | – | inactive | COC(=O)[C@H](CO)NC(=O)[C@@H](N)CC(C)C (H-Leu-Ser-OMe) | –
9 | 6.4 | 50% | COC(=O)[C@H](Cc1ccc(O)cc1)NC(=O)[C@H](CC(C)C)NC(=O)CN1CCCNCCCNCCC1 | –
10 | 5.9 | 50% | COC(=O)[C@H](C)NC(=O)[C@H](CC(C)C)NC(=O)CN1CCCNCCCNCCC1 | Activity (Nucleic Acid [3]): Active; Activity (Nucleic Acid [4]): Active; Activity (Nucleic Acid [5]): Active; Activity (Nucleic Acid [6]): Active; Activity (Nucleic Acid [7]): Active; Activity (Nucleic Acid [8]): inactive; Activity (Nucleic Acid [9]): Active; Activity (Nucleic Acid [10]): Active
11 | – | inactive | COC(=O)[C@H](C)NC(=O)[C@@H](N)CC(C)C (H-Leu-Ala-OMe) | –
12 | – | inactive | COC(=O)[C@H](Cc1c[nH]c2ccccc12)NC(=O)[C@@H](N)CC(C)C | –
13 | 7.1 | 50% | COC(=O)[C@H](CCCCN)NC(=O)[C@H](CC(C)C)NC(=O)CN1CCCNCCCNCCC1 | Activity (Nucleic Acid [3]): Active; Activity (Nucleic Acid [4]): Active; Activity (Nucleic Acid [5]): Active; Activity (Nucleic Acid [6]): Active; Activity (Nucleic Acid [7]): Active; Activity (Nucleic Acid [9]): Active; Activity (Nucleic Acid [10]): Active
14 | – | inactive | COC(=O)[C@H](CCCCNC(=O)OCC1c2ccccc2-c2ccccc21)NC(=O)[C@@H](N)CC(C)C (H-Leu-Lys(Fmoc)-OMe) | –
15 | 4.7 | 50% | COC(=O)[C@H](Cc1c[nH]c2ccccc12)NC(=O)[C@H](CC(C)C)NC(=O)CN1CCCNCCCNCCC1 | –
16 | – | inactive | COC(=O)[C@H](Cc1ccc(O)cc1)NC(=O)[C@@H](N)CC(C)C (H-Leu-Tyr-OMe) | –
